The text below walks through data of US20040039048A1, “Therapy with cannabinoid compounds for the treatment of brain tumors” (priority 2000, published 2004).

In assay [1] the test system is C6 glioblastoma cells. The experiment in a line: Viability of C6 glioblastoma culture cells (MTT method). In kind it is cell-based. The following applies: for IC50: after 5 days of exposure, n=4, read-out: concentration reducing viability of C6 glioblastoma by 50%; for prevention of cell death induced by THC, the two antagonists SR141716 and SR144528 jointly added: 1 μM SR141716 and 1 μM SR144528, 5 days. The procedure: Experiments were conducted with the object of obtaining a pharmacological characterization of cannabinoid-induced death of C6 glioblastoma culture cells.
C6 glioblastoma cells were cultivated at 37° C. and 5% CO2 in F-12 medium supplemented with calf fetal serum at 10%. 24 h before the start of the experiment the cells were transferred to an F-12 medium free of serum and supplemented with insulin (5 μg/ml), transferrine (10 μg/ml), sodium selenite (5 μg/ml) and delipidized and dialyzed BSA (10 mg/ml). The medium was renovated every 48 h and the cell viability was determined by the MTT method (Sanchez, C., Galve-Roperh, I., Canova, C., Brachet, P. & Guzman, M., op cit.).
On the technique in general: Tetrazolium assays rely on reduction of a dye to a coloured formazan, in cell work by metabolically active cells.

Assay [2] deals with C6 glioblastoma cells. The experiment in a line: C6 glioblastoma cells inoculated in rat brain; survival and magnetic resonance. In kind it is in vivo, Wistar rats.
Procedure: C6 glioblastoma cells were directly inoculated in the brain of Wistar rats and the tumors viewed by magnetic resonance. […] To evaluate the antitumoral potential of the cannabinoids, 12 days after inoculating the cells a group of animals was administered THC or WIN-55, 212-2 for 7 days through a cannula located at the site of inoculation.
Male Wistar rats (250-300 g in body mass) were anaesthetized with 3% isofluorane in an oxygen mixture (0.8 l/min) and protoxide (0.4 l/min). 5×10^8 C6 glioblastoma cells were prepared in 100 μl of saline solution buffered with phosphate (PBS) and supplemented with 0.1% glucose, and stereotaxically injected in the frontal parietal lobule of the right hemisphere (4 mm to the right of bregma, 4.5 mm depth from the cranium) (Izquierdo, M et al., Gene Ther. 2, 66-69, 1995). The rats received dexamethasone (2 mg/l) and tetracycline (75 mg/kg of body weight) in water for 3 days before and 7 days after inoculation of the cells. A thorough monitoring of the tumors was performed by magnetic resonance with the methods described by other authors (Izquierdo, M et al., op cit; Cortés, M. L., de Felipe, P., Martin, V. Hughes, M. A. & Izquierdo, M. Gene Ther. 5, 1499-1507, 1998).
The administration of cannabinoids to rats began 12 days after inoculation of the cells. At this time the average size of the tumors was 70 mm^3 (interval 25-100 mm^3) as estimated by magnetic resonance (Izquierdo, M et al., op cit; Cortés, de Felipe, Martin, Hughes & Izquierdo, M, op cit.). Cannabinoids were administered by a cannula placed at the place of inoculation of the tumor and attached to the cranium by dental cement; a small stainless steel screw anchored the cannula and the dental cement. The cannula was subcutaneously connected by a catheter to an osmotic mini-pump (Alzet 2001) which operated at a flow of 1 μl/h for 7 days. The osmotic pump was filled with 500-2500 μg of THC or 50-250 μg of WIN-55,212-2 in 200 μl of PBS supplemented with 5 mg/l of bovine serum albumin (BSA), delipidized and dialyzed.
The test system of assay [3] is C6 glioblastoma cells. The experiment in a line: C6 glioblastoma cells inoculated subcutaneously in immunodeficient RAG-2-/- mice; tumor size. The class given is in vivo. The following applies: 500 μg of THC or 50 μg of WIN-55,212-2 per day for 7 days, caliper, P<0.01 Student t test. The procedure:
In order to discern whether the antiproliferative action of cannabinoids was due to a direct effect on the tumoral cells or to an indirect effect mediated by an immune response, C6 glioblastoma cells were inoculated subcutaneously in mice with a deficiency of recombinase RAG-2 (RAG-2^-/-), which lack mature T and B lymphocytes (Shinkai et al. Cell 68, 855-867, 1992).
Tumors were induced in RAG-2^-/- […] by subcutaneous inoculation of 5×10^6 C6 glioblastoma cells in 100 μl of PBS supplemented with 0.1% glucose. […] The tumor sizes were measured by a caliper and their volume calculated according to (4π/3)×(width/2)^2×(length/2). […] In FIG. 4b are shown examples of tumor bearing mice and tumors dissected after treatment with or without cannabinoids for 7 days.

[4] abbreviates: fraction of treated animals, 7 days through cannula from day 12.

“Also recorded” adds a separate entry of the source. Like-named read-outs stand apart in the source and are kept apart here.

For `CCCCCCC(C)(C)c1cc(O)c2c(c1)OC(C)(C)[C@@H]1CC=C(CO)C[C@@H]21` [HU-210], the IC50 in the assay on C6 glioblastoma cells [1] (120 h) is 0.01 µM.
As for `Cc1c(C(=O)c2cccc3ccccc23)c2cccc3c2n1[C@H](CN1CCOCC1)CO3` [WIN-55,212-2], in the assay on C6 glioblastoma cells [1], the IC50 worked out at 0.02 µM. Moreover, the survival time with C6 glioblastoma cells [2] (days after inoculation, in the responding animals, cannabinoid for 7 days through cannula at site of inoculation from day 12, untreated died 12-18 days) was 19 to 43 days. Also, the “animals with increased survival time” value with C6 glioblastoma cells [2] (setting [4]) was 4/15. Further, the “animals with tumor completely eradicated” value with C6 glioblastoma cells [2] (setting [4]) is on record as 5/15. The “size of tumors versus control animals” value in the assay with C6 glioblastoma cells [3] is “much smaller”; in the assay on C6 glioblastoma cells [3] (212-2), “extraordinarily smaller”.
Consider SR144528, for which the “prevention of cell death induced by THC, the two antagonists SR141716 and SR144528 jointly added” value in the assay with C6 glioblastoma cells [1] (1 μM THC) is given as “prevented”.
On to `CCCCCc1cc(O)c2c(c1)OC(C)(C)[C@@H]1CCC(C)=C[C@@H]21` [THC, Δ^9-tetrahydrocannabinol], for which the “induction of death of C6 glioblastoma cells” value in the assay with C6 glioblastoma cells [1] (1 μM THC, 5 days, n=6) is “capable of inducing the death”. Further, in the assay with C6 glioblastoma cells [1] (120 h), the IC50 was 0.48 µM. For the same compound, the “size of tumors versus control animals” value in the assay with C6 glioblastoma cells [3] is listed as “extraordinarily smaller; also recorded: much smaller”.
For `Cc1c(C(=O)NN2CCCCC2)nn(-c2ccc(Cl)cc2Cl)c1-c1ccc(Cl)cc1` [SR141716], in the assay on C6 glioblastoma cells [1] (1 μM THC), the “prevention of cell death induced by THC, the two antagonists SR141716 and SR144528 jointly added” value is “prevented”. Further, in the assay on C6 glioblastoma cells [1] (1 μM THC, 1 μM antagonist, 5 days), the “prevention of cell death induced by THC, antagonist added separately” value was “Neither”.
With `CCCCCCC(C)(C)c1ccc([C@@H]2C[C@H](O)CC[C@H]2CCCO)c(O)c1` [CP-55,940], in the assay with C6 glioblastoma cells [1], the IC50 is 0.045 µM.
